Data published in patent publication US10889572B2, “Reactive oxygen species scavengers and use for treating diseases” (XW LABORATORIES INC., priority 2017, dated 2021).
pEC50: −log10 of the molar value. Counter-ions that a name gives are not always drawn.

test system: HT-1080 (fibrosarcoma) cells; experiment: Primary screening by ferroptosis assay (Erastin-induced, cell viability, CellTiter-Glo); assay type: cell-based; details: HT-1080 cells, 30 hours, % remaining activity, read-out: EC50, Inhibition for Ferroptosis in HT-1080 Cell
Method: Cell Lines and Media: HT-1080 (fibrosarcoma) cells were obtained from American Type Culture Collection. Cells were grown in EMEM media, 10% Heat-Inactivated FBS, and penicillin-streptomycin mix (Invitrogen). Cells were maintained at 37° C. and 5% CO2 in a tissue culture incubator.
Cell Viability Assay: Seed 10,000 cell/well of HT-1080 cells with 195 μL growth media in black and clear bottom 96-well plates (Cat #Corning 3904) and allow cells to adhere overnight. The next day, dilute test compound by 2-fold dilution into 12 points with medium containing 400 μM Erastin. Transfer 5 μL of compounds solution into growth medium in triplicated wells. 30 hours later, add Cell Titer-Glo® Luminescent cell viability assay reagent (Cat #, Promega G8081) to measure HT-1080 cell viability according to the manufacture protocol. Briefly, aspirate 100 μL medium, and add 50 μL CellTiter-Glo® Luminescent reagent to each well and incubated for 30 minutes at room temperature to stabilize the Luminescent signal. Seal the plates and centrifuged for 1 minute at 1,000 rpm to remove bubbles. Shake the plates for 1 minute on an orbital shaker. Read the plate to detect Luminescent signal with EnSpire Multimode Plate Reader (PerkinElmer). The remaining activity % is used to evaluate Erastin induced ferroptosis in HT-1080 cells and expressed as the following formula: % Remaining Activity−100×[(Sample−Backgroundavg)/(Vehicle−Background avg)]
Sample: Readout from the test compound
Vehicle: Readout from the vehicle sample
Background: Readout from the Erastin only treatment
Dose response curve is graphed by using the non-linear regression analysis (formula equation 201) in XLFit (Excel add-in software) for the average % remaining activity from triplicates, and the EC50 values is then calculated. In this anti-ferroptosis assay, ferrostatin-1, and XJB-5-131 are included as reference. The acceptance criteria were set based on historical result, mean±2.58*SD in logarithmic scale, meanwhile Z′>0.5.

Row | SMILES | pEC50
1 | CC(C)C[C@@H](/C=C/[C@H](Cc1ccccc1)C(=O)N1CCC[C@H]1C(=O)N[C@H](C(=O)N[C@@H](CCCNC(=O)OCc1ccccc1)C(=O)NC1CC(C)(C)N([O])C(C)(C)C1)C(C)C)NC(=O)OC1CC(C)(C)N([O])C(C)(C)C1 [Example VIII, 1-Oxyl-2,2,6,6-tetramethylpiperidin-4-yl N-[(4S,5E,7S)-7-benzyl-8-[(2S)—2-{[(1S)—1-{[(1S)—4-{[(benzyloxy)carbonyl]amino}-1-[(1-oxyl-2,2,6,6-tetramethylpiperidin-4-yl)carbamoyl]butyl]carbamoyl}-2-methylpropyl]carbamoyl}pyrrolidin-1-yl]-2-methyl-8-oxooct-5-en-4-yl]carbamate] | 6.58
2 | CC(C)C[C@@H](/C=C/[C@H](Cc1ccccc1)C(=O)N1CCC[C@H]1C(=O)N[C@@H](CCCNC(=O)OC(C)(C)C)C(=O)NC1CC(C)(C)N([O])C(C)(C)C1)NC(=O)OC(C)(C)C [Example XX, tert-Butyl N-(4-{[(2S)-1-[(2R,3E,5S)-2-benzyl-5-{[(tert-butoxy)carbonyl]amino}-7-methyloct-3-enoyl]pyrrolidin-2-yl]formamido}-4-[(1-oxyl-2,2,6,6-tetramethylpiperidin-4-yl)carbamoyl]butyl)carbamate] | 6.27

same assay, conditions: Homo sapiens, HT-1080, 30 h, HT-1080 cells, % remaining activity, read-out: EC50, Inhibition for Ferroptosis in HT-1080 Cell

Row | SMILES | pEC50
3 | CC(C)C[C@@H](/C=C/C(Cc1ccccc1)C(=O)N1CCC[C@H]1C(=O)N[C@H](C(=O)N[C@@H](CCCNC(=O)OCc1ccccc1)C(=O)NC1CC(C)(C)N(O)C(C)(C)C1)C1CC1)NC(=O)OC(C)(C)C (stereo in doubt) [Example XII, Benzyl N-[(4S)-4-[(2S)—2-{[(2S)-1-[(2R,3E,5S)-2-benzyl-5-{[(tert-butoxy)carbonyl]amino}-7-methyloct-3-enoyl]pyrrolidin-2-yl]formamido}-2-cyclopropylacetamido]-4-[(1-hydroxy-2,2,6,6-tetramethylpiperidin-4-yl)carbamoyl]butyl]carbamate] | 6.32
4 | CC(C)C[C@@H](/C=C/[C@H](Cc1ccccc1)C(=O)N1CCCC1C(=O)N[C@@H](CCCCNC(=O)OC1CC(C)(C)N(O)C(C)(C)C1)C(=O)OC1CCCCC1)NC(=O)OC(C)(C)C (stereo in doubt) [Example XXXXVI, (S)—Cyclohexyl 2-((R)-1-((2S,5S,E)-2-benzyl-5-((tert-butoxycarbonyl)amino)-7-methyloct-3-enoyl)pyrrolidine-2-carboxamido)-6-((((1-hydroxy-2,2,6,6-tetramethylpiperidin-4-yl)oxy)carbonyl)amino)hexanoate] | 7.18
5 | CC(C)C[C@@H](/C=C/[C@H](Cc1ccccc1)C(=O)N1CCC[C@@H]1C(=O)NC1CC(C)(C)N(O)C(C)(C)C1)NC(=O)OC(C)(C)C [Example VI, tert-Butyl N-[(4S,5E,7S)-7-benzyl-8-[(2R)-2-[(1-hydroxy-2,2,6,6-tetramethylpiperidin-4-yl)carbamoyl]pyrrolidin-1-yl]-2-methyl-8-oxooct-5-en-4-yl]carbamate] | 5.99
6 | CC(C)C[C@@H](/C=C/[C@H](Cc1ccccc1)C(=O)N1CCC[C@H]1C(=O)N1CCC[C@H]1C(=O)N[C@@H](CCCNC(=O)OCc1ccccc1)C(=O)NC1CC(C)(C)N(O)C(C)(C)C1)NC(=O)OC(C)(C)C [Example XI, Benzyl N-[(4S)-4-1-{[(2S)-1-[(2S)-1-[(2R,3E,5S)-2-benzyl-5-{[(tert-butoxy)carbonyl]amino}-7-methyloct-3-enoyl]pyrrolidine-2-carbonyl]pyrrolidin-2-yl]formamido}-4-[(1-hydroxy-2,2,6,6-tetramethylpiperidin-4-yl)carbamoyl]butyl]carbamate] | 6.28
7 | CC(C)C[C@H](N)/C=C/[C@H](Cc1ccccc1)C(=O)N1CCC[C@H]1C(=O)N[C@H](CCCNC(=O)OCc1ccccc1)C(=O)NC1CC(C)(C)N(O)C(C)(C)C1 [Example XIII, Benzyl N-[(4R)—4-{[(2S)-1-[(2S,3E,5S)-5-amino-2-benzyl-7-methyloct-3-enoyl]pyrrolidin-2-yl]formamido}-4-[(1-hydroxy-2,2,6,6-tetramethyl-piperidin-4-yl)carbamoyl]butyl]carbamate dihydrochloride] | 6.58
8 | CC(C)C[C@@H](/C=C/[C@H](Cc1ccccc1)C(=O)N1CCC[C@H]1C(=O)N[C@@H](C)C(=O)N[C@@H](CCCNC(=O)OCc1ccccc1)C(=O)NC1CC(C)(C)N(O)C(C)(C)C1)NC(=O)OC(C)(C)C [Example XIV, Benzyl N-[(4S)-4-[(2S)—2-{[(2S)-1-[(2S,3E,5S)-2-benzyl-5-{[(tert-butoxy)carbonyl]amino}-7-methyloct-3-enoyl]pyrrolidin-2-yl]formamido}propanamido]-4-[(1-hydroxy-2,2,6,6-tetramethylpiperidin-4-yl)carbamoyl]butyl]carbamate] | 6.29
9 | CC(C)C[C@@H](/C=C/[C@H](Cc1ccccc1)C(=O)N1CCC[C@H]1C(=O)N[C@@H](Cc1ccc(O)cc1)C(=O)NC1CC(C)(C)N(O)C(C)(C)C1)NC(=O)OC(C)(C)C [Example XVI, tert-Butyl N-[(4S,5E,7S)-7-benzyl-8-[(2S)—2-{[(1S)-1-[(1-hydroxy-2,2,6,6-tetramethylpiperidin-4-yl)carbamoyl]-2-(4-hydroxyphenyl)ethyl]carbamoyl}pyrrolidin-1-yl]-2-methyl-8-oxooct-5-en-4-yl]carbamate] | 6.27
10 | CC(C)C[C@@H](/C=C/[C@H](Cc1ccccc1)C(=O)N1CCC[C@@H]1C(=O)N[C@@H](CCCNC(=O)OCc1ccccc1)C(=O)NC1CC(C)(C)N(O)C(C)(C)C1)NC(=O)OC(C)(C)C [Example XVII, Benzyl N-[(4S)—4-{[(2R)-1-[(2S,3E,5S)-2-benzyl-5-{[(tert-butoxy)carbonyl]amino}-7-methyloct-3-enoyl]pyrrolidin-2-yl]formamido}-4-[(1-hydroxy-2,2,6,6-tetramethylpiperidin-4-yl)carbamoyl]butyl]carbamate] | 6.55
11 | COC(=O)[C@H](CCCNC(=O)OC1CC(C)(C)N(O)C(C)(C)C1)NC(=O)[C@@H]1CCCN1C(=O)[C@H](/C=C/[C@H](CC(C)C)NC(=O)OC(C)(C)C)Cc1ccccc1 [Example XVIII] | 7.07
12 | Cc1cc(O)cc(C)c1CNC(=O)[C@H](CCCNC(=O)OCc1ccccc1)NC(=O)[C@@H]1CCCN1C(=O)[C@H](/C=C/[C@H](CC(C)C)NC(=O)OC(C)(C)C)Cc1ccccc1 [Example XXIV, Benzyl N-[(4S)—4-{[(2S)-1-[(2S,3E,5S)-2-benzyl-5-{ [(tert-butoxy)carbonyl]amino}-7-methyloct-3-enoyl]pyrrolidin-2-yl]formamido}-4-{[(4-hydroxy-2,6-dimethylphenyl)methyl]carbamoyl}butyl]carbamate] | < 5.40
13 | CC(C)C[C@@H](/C=C/[C@H](Cc1ccccc1)C(=O)N1CCC[C@H]1C(=O)N[C@H](C(=O)N[C@@H](CCCNC(=O)OCc1ccccc1)C(=O)NC1CC(C)(C)N(O)C(C)(C)C1)C(C)C)NC(=O)OC1CC(C)(C)N(O)C(C)(C)C1 [Example XXV, 1-Hydroxy-2,2,6,6-tetramethylpiperidin-4-yl N-[(4S,5E,7S)-7-benzyl-8-[(2S)—2-{[(1S)—1-{[(1S)—4-{[(benzyloxy)carbonyl]amino}-1-[(1-hydroxy-2,2,6,6-tetramethylpiperidin-4-yl)carbamoyl]butyl]carbamoyl}-2-methylpropyl]carbamoyl}pyrrolidin-1-yl]-2-methyl-8-oxooct-5-en-4-yl]carbamate dihydrochloride] | 6.59

same assay, conditions: Homo sapiens, HT-1080 cells, 30 hours, % remaining activity, read-out: EC50, Inhibition for Ferroptosis in HT-1080 Cell

Row | SMILES | pEC50
14 | CC(C)C[C@H](N)/C=C/[C@H](Cc1ccccc1)C(=O)N1CCC[C@H]1C(=O)N[C@H](C(=O)N[C@@H](CCCNC(=O)OCc1ccccc1)C(=O)NC1CC(C)(C)N(O)C(C)(C)C1)C(C)C [Example XV, Benzyl N-[(4S)-4-[(2S)—2-{[(2S)-1-[(2S,3E,5S)-5-amino-2-benzyl-7-methyloct-3-enoyl]pyrrolidin-2-yl]formamido}-3-methylbutanamido]-4-[(1-hydroxy-2,2,6,6-tetramethylpiperidin-4-yl)carbamoyl]butyl]carbamate trifluoroacetic acid salt] | 5.65
15 | CC(C)C[C@@H](/C=C/[C@H](Cc1ccccc1)C(=O)N1CCC[C@@H]1C(=O)N[C@@H](CCCNC(=O)OC(C)(C)C)C(=O)NC1CC(C)(C)N(O)C(C)(C)C1)NC(=O)OC(C)(C)C [Example XXI, tert-Butyl N-[(4S,5E,7S)-7-benzyl-8-[(2R)—2-{[(1S)—4-{[(tert-butoxy)carbonyl]amino}-1-[(1-hydroxy-2,2,6,6-tetramethylpiperidin-4-yl)carbamoyl]butyl]carbamoyl}pyrrolidin-1-yl]-2-methyl-8-oxooct-5-en-4-yl]carbamate] | 6.59
